From the supplement of paper PMC10307832

Key:
Assay in all cases: relative viability (nuclei count vs DMSO), 5 days (fraction); higher = more cells survive
[1] = compound: COc1cc2nccc(Oc3ccc(NC(=O)C4(C(=O)Nc5ccc(F)cc5)CC4)cc3)c2cc1OC [Cabozantinib] + N=C(N)NC(=N)NCCc1ccccc1 [Phenformin] (partner 250 µM)
Procedure, shortened: (§1)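 Nuclei were stained with Hoechst during a one-step fixation (final 0.05% Triton X-100, 1% formaldehyde, 1 ug/ml Hoechst) carried out 5 days after dosing, then counted on 4× images. The cells, lung cancer lines in 1536-well plates, had been dosed by pin tool the day after seeding with one drug alone or a fixed anchor-drug dose plus five library-drug doses (not always all listed) in √10 steps. Relative viability is the nuclei count in treated wells divided by that in vehicle wells, and each value is the median of duplicate plates.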

Zosuquidar + Crizotinib = compound: O[C@@H](COc1cccc2ncccc12)CN1CCN([C@@H]2c3ccccc3[C@@H]3[C@H](c4ccccc42)C3(F)F)CC1 [Zosuquidar] + C[C@@H](Oc1cc(-c2cnn(C3CCNCC3)c2)cnc1N)c1c(Cl)ccc(F)c1Cl [Crizotinib] (partner 1 µM)
Procedure, shortened: as §1

Kobe2602 + Pictilisib = compound: C1=CC(=CC=C1NC(=S)NNC2=C(C=C(C=C2[N+](=O)[O-])C(F)(F)F)[N+](=O)[O-])F [Kobe2602] + CS(=O)(=O)N1CCN(Cc2cc3nc(-c4cccc5[nH]ncc45)nc(N4CCOCC4)c3s2)CC1 [Pictilisib] (partner 1 µM)
Procedure, shortened: as §1

Cabozantinib + Olaparib = compound: COc1cc2nccc(Oc3ccc(NC(=O)C4(C(=O)Nc5ccc(F)cc5)CC4)cc3)c2cc1OC [Cabozantinib] + O=C(c1cc(Cc2n[nH]c(=O)c3ccccc23)ccc1F)N1CCN(C(=O)C2CC2)CC1 [Olaparib] (partner 8 µM)
Procedure, shortened: as §1

| Cell Line | relative viability ([1]; first compound 0.02 µM) | relative viability ([1]; first compound 0.06325 µM) | relative viability ([1]; first compound 0.2 µM) | relative viability ([1]; first compound 0.6325 µM) | relative viability ([1]; first compound 2 µM) | relative viability (Zosuquidar + Crizotinib; first compound 0.01 µM) | relative viability (Zosuquidar + Crizotinib; first compound 0.03162 µM) | relative viability (Zosuquidar + Crizotinib; first compound 0.1 µM) | relative viability (Zosuquidar + Crizotinib; first compound 0.3162 µM) | relative viability (Zosuquidar + Crizotinib; first compound 1 µM) | relative viability (Kobe2602 + Pictilisib; first compound 0.2 µM) | relative viability (Kobe2602 + Pictilisib; first compound 0.6325 µM) | relative viability (Kobe2602 + Pictilisib; first compound 2 µM) | relative viability (Kobe2602 + Pictilisib; first compound 6.325 µM) | relative viability (Kobe2602 + Pictilisib; first compound 20 µM) | relative viability (Cabozantinib + Olaparib; first compound 0.02 µM) | relative viability (Cabozantinib + Olaparib; first compound 0.06325 µM) | relative viability (Cabozantinib + Olaparib; first compound 0.2 µM) | relative viability (Cabozantinib + Olaparib; first compound 0.6325 µM) | relative viability (Cabozantinib + Olaparib; first compound 2 µM) |
| --- | --- | --- | --- | --- | --- | --- | --- | --- | --- | --- | --- | --- | --- | --- | --- | --- | --- | --- | --- | --- |
| HCC-15 | 0.366 | 0.532 | 0.512 | 0.478 | 0.491 | 0.821 | 0.865 | 0.71 | 0.856 | 0.874 | 0.816 | 0.848 | 0.738 | 0.78 | 0.707 | 0.745 | 0.755 | 0.73 | 0.719 | 0.692 |
| HCC-44 | 0.102 | 0.273 | 0.275 | 0.224 | 0.224 | 0.761 | 0.828 | 0.84 | 0.846 | 0.804 | 0.63 | 0.623 | 0.684 | 1.54 | 0.662 | 0.988 | 1.02 | 0.964 | 0.997 | 1 |
| HCC-78 |  | 0.733 | 0.335 | 0.383 | 0.383 | 0.352 | 0.321 |  | 0.362 | 0.322 | 0.246 | 0.255 |  | 0.212 | 0.211 |  | 0.886 | 0.753 | 0.443 | 0.405 |
| HCC-366 | 0.675 | 0.612 | 0.653 | 0.623 | 0.581 | 0.468 | 0.59 | 0.636 | 0.48 | 0.577 | 0.0894 | 0.176 | 0.0839 | 0.141 | 0.211 | 0.597 | 0.464 | 0.395 | 0.4 | 0.335 |
| HCC-827 | 0.425 | 0.441 |  | 0.417 | 0.381 | 0.931 | 0.923 | 0.937 | 0.871 | 0.872 | 1 | 0.932 | 0.898 | 0.981 | 1.18 | 0.643 | 0.786 |  | 0.624 | 0.562 |
| HOP-62 | 0.706 | 0.777 | 0.741 | 0.693 | 0.697 | 0.829 | 1.01 | 0.85 | 1 | 0.864 | 0.72 | 1.09 | 0.717 | 0.783 | 0.782 | 0.435 | 0.406 | 0.608 | 0.602 | 0.575 |
| IA-LM |  |  |  |  |  |  | 0.804 | 1.05 | 1.03 | 0.861 | 0.369 | 0.306 | 0.338 | 0.318 | 0.317 | 0.817 | 0.849 | 0.801 | 1.06 | 0.925 |
| LC-2-ad |  | 0.68 | 0.574 | 0.604 | 0.546 | 0.443 | 0.508 | 0.451 | 0.449 | 0.46 | 0.614 | 0.54 | 0.459 | 0.441 | 0.477 | 0.754 | 0.735 | 0.847 | 0.829 | 0.691 |
| LCLC-97TM1 | 0.229 | 0.461 | 0.5 | 0.431 | 0.45 | 0.389 | 0.327 |  | 0.429 | 0.339 | 0.195 | 0.18 | 0.185 | 0.15 | 0.167 | 0.483 | 0.492 | 0.332 | 0.342 | 0.407 |
| LCLC-103H | 0.296 | 0.354 | 0.27 | 0.371 | 0.306 | 1.07 | 1.09 | 0.991 | 0.892 | 0.989 | 0.596 | 0.696 | 0.62 | 0.618 | 0.638 | 0.77 | 0.796 | 0.779 | 0.79 | 0.729 |
| LK-2 |  | 0.508 |  | 0.396 | 0.607 | 0.237 | 0.218 | 0.28 | 0.274 | 0.224 | 0.642 | 0.597 | 0.534 | 0.542 | 0.609 | 0.57 | 0.791 | 0.815 | 0.697 | 0.667 |
| NCI-H522 | 0.692 | 0.657 | 0.633 | 0.637 | 0.716 |  |  |  |  |  |  |  |  |  |  | 0.714 | 0.667 | 0.584 | 0.625 | 0.648 |
| NCI-H1299 |  |  |  |  |  | 0.938 | 1.01 | 1.03 | 0.982 | 0.928 | 0.862 | 0.957 | 0.706 | 0.71 | 0.916 | 0.969 | 0.988 | 0.964 | 0.971 | 1.09 |
| NCI-H1395 | 0.465 | 0.477 | 0.472 | 0.438 | 0.448 |  |  |  |  |  | 0.612 | 0.664 | 0.617 | 0.65 | 0.816 | 0.439 | 0.466 | 0.497 | 0.46 | 0.454 |
| NCI-H1563 | 0.601 | 0.668 | 0.658 | 0.702 | 0.709 | 0.734 | 0.904 | 0.84 | 0.828 | 0.838 | 0.648 | 0.697 | 0.616 | 0.684 | 0.653 |  |  |  |  |  |
| NCI-H1623 | 0.545 | 0.667 | 0.526 | 0.519 | 0.585 |  |  |  |  |  |  |  |  |  |  |  |  |  |  |  |
| NCI-H1648 |  |  |  |  |  |  |  |  |  |  |  |  |  |  |  | 1.17 | 0.995 |  | 1.02 | 0.651 |
| NCI-H1703 |  |  |  |  |  | 0.785 | 1.13 | 0.682 | 0.582 | 1.01 | 0.26 | 0.245 | 0.225 | 0.263 | 0.229 | 0.398 | 0.232 | 0.224 | 0.215 | 0.149 |
| NCI-H1793 | 0.347 | 0.441 | 0.303 | 0.326 | 0.296 |  |  |  |  |  | 0.387 | 0.381 | 0.32 | 0.346 | 0.339 | 1.01 | 0.899 |  | 0.756 | 0.599 |
| NCI-H2342 | 0.538 | 0.785 | 0.552 | 0.633 | 0.545 |  |  |  |  |  |  |  |  |  |  | 0.436 | 0.454 | 0.746 | 0.495 | 0.379 |
| SW 900 | 0.692 | 0.668 | 0.662 | 0.552 | 0.408 |  |  |  |  |  |  |  |  |  |  | 0.877 | 0.941 | 0.664 | 0.636 | 0.684 |
